# Like-named read-outs stand apart in the source and are kept apart here.
# Key:
# [1] = target: T1, EGFR L858R/T790M/C797S (BaF3-LTC cells) (Homo sapiens, UniProt P00533, C797S/L858R/T790M); experiment: EGFR degradation HTRF assay, BaF3-LTC cells; type: cell-based
# T1 construct: expressed in transfected cells; host or cells: BaF3
# Method in brief: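 EGFR remaining after a 16 h, 37 °C exposure (8 doses, 5-fold steps from 10 uM final, 0.2% DMSO) was quantified by HTRF antibodies in cell lysate. Percent inhibition relative to DMSO control was fitted by four-parameter logistic to give DC50; Dmax denotes maximal degradation.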
# [2] = tested on: EGFR Del19/T790M/C797S (H1975-clone #28); experiment: EGFR degradation HTRF assay, H1975-clone #28 DTC cells; type: cell-based
# Method in brief: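 Compounds (top 10 uM, 5-fold, 8 points, 0.2% DMSO) incubated 16 h at 37 °C on homozygous clones: #23 Del19/C797S, #28 Del19/T790M/C797S, exogenous EGFR only in H1975. HTRF on lysates quantified remaining EGFR relative to DMSO; four-parameter fit gave DC50 and Dmax.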
# [3] = BaF3-LTC cells; EGFR degradation, IC50 (DC50) from curve fit; read-out: DC50(nM) BaF3-LTC
# [4] = H1975 # 28 DTC cells; EGFR degradation, IC50 (DC50) from curve fit; read-out: DC50(nM) H1975 # 28 DTC
# [5] = H1975 # 28 DTC cells; maximum percentage of inhibition (degradation)
# [6] = read-out: DC50(nM) BaF3-LTC; BaF3-LTC cells; EGFR degradation, IC50 (DC50) from curve fit
# [7] = read-out: Dmax (%) BaF3-LTC, BaF3-LTC cells; maximum percentage of inhibition (degradation)
# [8] = read-out: DC50(nM) H1975 # 28 DTC; H1975 # 28 DTC cells; EGFR degradation, IC50 (DC50) from curve fit
# [9] = BaF3-LTC cells; maximum percentage of inhibition (degradation); read-out: Dmax (%) BaF3-LTC
# T1 sequence (P00533 25-1210 T790M/C797S/L858R): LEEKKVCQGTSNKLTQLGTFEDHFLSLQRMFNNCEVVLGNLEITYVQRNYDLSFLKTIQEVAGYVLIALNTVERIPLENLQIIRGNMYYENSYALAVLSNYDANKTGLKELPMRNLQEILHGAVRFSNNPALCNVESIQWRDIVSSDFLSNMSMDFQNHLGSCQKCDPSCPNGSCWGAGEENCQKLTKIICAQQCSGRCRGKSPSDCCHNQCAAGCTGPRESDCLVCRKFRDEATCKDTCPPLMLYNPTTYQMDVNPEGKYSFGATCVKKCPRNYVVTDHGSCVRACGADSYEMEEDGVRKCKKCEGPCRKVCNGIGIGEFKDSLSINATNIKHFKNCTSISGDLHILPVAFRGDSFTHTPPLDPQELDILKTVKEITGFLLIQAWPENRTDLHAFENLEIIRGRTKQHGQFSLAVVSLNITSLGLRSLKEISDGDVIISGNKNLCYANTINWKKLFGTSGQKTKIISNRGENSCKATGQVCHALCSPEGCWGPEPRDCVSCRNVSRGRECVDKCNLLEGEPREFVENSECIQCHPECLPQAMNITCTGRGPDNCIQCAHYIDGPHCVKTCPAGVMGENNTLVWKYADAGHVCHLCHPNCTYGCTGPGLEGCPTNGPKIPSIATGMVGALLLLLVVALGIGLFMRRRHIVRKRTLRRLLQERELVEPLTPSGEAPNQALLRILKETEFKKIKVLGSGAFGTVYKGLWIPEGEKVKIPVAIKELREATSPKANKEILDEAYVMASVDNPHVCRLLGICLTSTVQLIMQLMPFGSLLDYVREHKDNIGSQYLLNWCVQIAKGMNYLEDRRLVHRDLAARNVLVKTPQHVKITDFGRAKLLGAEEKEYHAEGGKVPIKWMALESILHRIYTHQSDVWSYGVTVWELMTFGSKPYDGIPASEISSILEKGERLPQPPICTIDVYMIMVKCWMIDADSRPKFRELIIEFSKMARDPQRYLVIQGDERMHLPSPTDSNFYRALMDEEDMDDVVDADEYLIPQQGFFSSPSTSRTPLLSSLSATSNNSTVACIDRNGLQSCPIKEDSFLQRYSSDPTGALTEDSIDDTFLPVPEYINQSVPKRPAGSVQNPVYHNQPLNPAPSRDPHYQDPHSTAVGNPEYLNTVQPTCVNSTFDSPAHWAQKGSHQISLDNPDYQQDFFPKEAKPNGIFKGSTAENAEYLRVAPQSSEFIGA
"DC50 [1, 3]",Dmax (%) BaF3-LTC ([1]; BaF3-LTC cells; maximum percentage of inhibition (degradation)),"DC50 [2, 4]","Dmax [1, 9]",SMILES,"Dmax (%) H1975 # 28 DTC [2, 5]","DC50 [1, 6]","Dmax [1, 7]","DC50 [2, 8]"
6.56 nM,91.42%,0.937 nM,,"CCOc1cc(N2CCC(N3CCN(CCc4c(F)ccc5c4n(CC)c(=O)n5C4CCC(=O)NC4=O)CC3)CC2)c(CC)cc1Nc1ncc(Br)c(Nc2ccc3c(=O)n(CC)ncc3c2P(C)(C)=O)n1 (centres unmarked) [Example 596, 3-(4-(2-(4-(1-(4-((5-bromo-4-((5-(dimethylphosphoryl)-2-ethyl-1-oxo-1,2-dihydrophthalazin-6-yl)amino)pyrimidin-2-yl)amino)-5-ethoxy-2-ethylphenyl)piperidin-4-yl)piperazin-1-yl)ethyl)-3-ethyl-5-fluoro-2-oxo-2,3-dihydro-1H-benzo[d]imidazol-1-yl)piperidine-2,6-dione]",84.17%,,,
,,,,"CCc1ccc2c(P(C)(C)=O)c(Nc3nc(Nc4cc(CC)c(N5CCC(N6CCN(C(=O)C7CCN(c8cccc9c8oc(=O)n9C8CCC(=O)NC8=O)CC7)CC6)CC5)cc4OC)ncc3Br)ccc2n1 (centres unmarked) [Example 450, 3-(7-(4-(4-(1-(4-((5-bromo-4-((5-(dimethylphosphoryl)-2-ethylquinolin-6-yl)amino)pyrimidin-2-yl)amino)-2-ethyl-5-methoxyphenyl)piperidin-4-yl)piperazine-1-carbonyl)piperidin-1-yl)-2-oxobenzo[d]oxazol-3(2H)-yl)piperidine-2,6-dione]",77%,2.68 nM,87.7%,0.616 nM
12.2 nM,,3.11 nM,96.5%,"CCc1cc(Nc2ncc(Br)c(Nc3ccc4c(=O)n(C5CC5)ncc4c3P(C)(C)=O)n2)c(OC)cc1N1CCC(N2CCN(CCC3CCN(c4cc(F)c([C@H]5CCC(=O)NC5=O)c(F)c4)CC3)CC2)CC1 [Example 578, (R)-3-(4-(4-(2-(4-(1-(4-((5-bromo-4-((2-cyclopropyl-5-(dimethylphosphoryl)-1-oxo-1,2-dihydrophthalazin-6-yl)amino)pyrimidin-2-yl)amino)-2-ethyl-5-methoxyphenyl)piperidin-4-yl)piperazin-1-yl)ethyl)piperidin-1-yl)-2,6-difluorophenyl)piperidine-2,6-dione]",87.5%,,,
5.13 nM,,0.735 nM,92.3%,"CCc1ccc2c(P(C)(C)=O)c(Nc3nc(Nc4cc(CC)c(N5CCC(N6CCN(CCc7cccc8c7n(C7CC7)c(=O)n8C7CCC(=O)NC7=O)CC6)CC5)cc4OC)ncc3Br)ccc2n1 (centres unmarked) [Example 454, 3-(4-(2-(4-(1-(4-((5-bromo-4-((5-(dimethylphosphoryl)-2-ethylquinolin-6-yl)amino)pyrimidin-2-yl)amino)-2-ethyl-5-methoxyphenyl)piperidin-4-yl)piperazin-1-yl)ethyl)-3-cyclopropyl-2-oxo-2,3-dihydro-1H-benzo[d]imidazol-1-yl)piperidine-2,6-dione]",78.41%,,,
6.6 nM,,0.723 nM,86.9%,"CCOc1cc(N2CCC(N3CCN(CCc4cc(F)c([C@H]5CCC(=O)NC5=O)c(F)c4)CC3)CC2)c(CC)cc1Nc1ncc(Br)c(Nc2cc(F)c3ncc(C)cc3c2P(C)(C)=O)n1 [Example 672, (R)-3-(4-(2-(4-(1-(4-((5-bromo-4-((5-(dimethylphosphoryl)-8-fluoro-3-methylquinolin-6-yl)amino)pyrimidin-2-yl)amino)-5-ethoxy-2-ethylphenyl)piperidin-4-yl)piperazin-1-yl)ethyl)-2,6-difluorophenyl)piperidine-2,6-dione]",87.05%,,,
53.2 nM,,2.14 nM,74.2%,"CCOc1cc(N2CCC(N3CCN(CCc4cc(OC)cc5c4oc(=O)n5C4CCC(=O)NC4=O)CC3)CC2)c(CC)cc1Nc1ncc(Br)c(Nc2ccc3nc(CC)ccc3c2P(C)(C)=O)n1 (centres unmarked) [Example 618, 3-(7-(2-(4-(1-(4-((5-bromo-4-((5-(dimethylphosphoryl)-2-ethylquinolin-6-yl)amino)pyrimidin-2-yl)amino)-5-ethoxy-2-ethylphenyl)piperidin-4-yl)piperazin-1-yl)ethyl)-5-methoxy-2-oxobenzo[d]oxazol-3(2H)-yl)piperidine-2,6-dione]",74.88%,,,
294 nM,,14.8 nM,,"CCOc1cc(N2CCC(N3CCN(CCc4cc(F)c([C@H]5CCC(=O)NC5=O)c(F)c4)CC3)CC2)c(CC)cc1Nc1nccc(Nc2ccc3nc(CC)ncc3c2P(C)(C)=O)n1 [Example 749, (R)-3-(4-(2-(4-(1-(4-((4-((5-(dimethylphosphoryl)-2-ethylquinazolin-6-yl)amino)pyrimidin-2-yl)amino)-5-ethoxy-2-ethylphenyl)piperidin-4-yl)piperazin-1-yl)ethyl)-2,6-difluorophenyl)piperidine-2,6-dione]",66.03%,,,
11.1 nM,,2.4 nM,93.2%,"CCc1cc(Nc2ncc(Br)c(Nc3ccc4nc(C)sc4c3P(C)(C)=O)n2)c(OC)cc1N1CCC(N2CCN(CCc3cc(F)c(C4CCC(=O)NC4=O)c(F)c3)CC2)CC1 (centres unmarked) [Example 666, 3-(4-(2-(4-(1-(4-((5-bromo-4-((7-(dimethylphosphoryl)-2-methylbenzo[d]thiazol-6-yl)amino)pyrimidin-2-yl)amino)-2-ethyl-5-methoxyphenyl)piperidin-4-yl)piperazin-1-yl)ethyl)-2,6-difluorophenyl)piperidine-2,6-dione]",86.11%,,,
16.1 nM,,0.986 nM,92.2%,"CCc1cc(Nc2ncc(Br)c(Nc3ccc4nc(C)ccc4c3P(C)(C)=O)n2)c(OC)cc1N1CCC(N2CCN(C3CCN(c4cc(F)c(C5CCC(=O)NC5=O)c(F)c4)CC3)CC2)CC1 (centres unmarked) [Example 694, 3-(4-(4-(4-(1-(4-((5-bromo-4-((5-(dimethylphosphoryl)-2-methylquinolin-6-yl)amino)pyrimidin-2-yl)amino)-2-ethyl-5-methoxyphenyl)piperidin-4-yl)piperazin-1-yl)piperidin-1-yl)-2,6-difluorophenyl)piperidine-2,6-dione]",68.67%,,,
11.2 nM,,0.75 nM,,"COc1cc(N2CCC3(CCN(CCCCCOc4cccc5c4CN(C4CCC(=O)NC4=O)C5=O)CC3)CC2)c(C)cc1Nc1ncc(Br)c(Nc2ccc3nccnc3c2P(C)(C)=O)n1 (centres unmarked) [Example 542, 3-(4-((5-(9-(4-((5-bromo-4-((5-(dimethylphosphoryl)quinoxalin-6-yl)amino)pyrimidin-2-yl)amino)-5-methoxy-2-methylphenyl)-3,9-diazaspiro[5.5]undecan-3-yl)pentyl)oxy)-1-oxoisoindolin-2-yl)piperidine-2,6-dione]",45.37%,,,
4.3 nM,,1.01 nM,96.5%,"CCc1cc(Nc2ncc(Br)c(Nc3ccc4nc(C)ccc4c3P(C)(C)=O)n2)c(OC)cc1N1CCC(N2CCN(C(=O)[C@@H]3CCN(c4cc(F)c([C@H]5CCC(=O)NC5=O)c(F)c4)C3)[C@H](CO)C2)CC1 [Example 675, (R)-3-(4-((R)-3-((S)-4-(1-(4-((5-bromo-4-((5-(dimethylphosphoryl)-2-methylquinolin-6-yl)amino)pyrimidin-2-yl)amino)-2-ethyl-5-methoxyphenyl)piperidin-4-yl)-2-(hydroxymethyl)piperazine-1-carbonyl)pyrrolidin-1-yl)-2,6-difluorophenyl)piperidine-2,6-dione]",82.47%,,,
6.8 nM,,0.773 nM,89.1%,"CCc1cc(Nc2ncc(Br)c(Nc3ccc4nc(C)ccc4c3P(C)(C)=O)n2)c(OC2CC2)cc1N1CCC(N2CCN(CCc3ccc4c(c3)oc(=O)n4C3CCC(=O)NC3=O)CC2)CC1 (centres unmarked) [Example 557, 3-(6-(2-(4-(1-(4-((5-bromo-4-((5-(dimethylphosphoryl)-2-methylquinolin-6-yl)amino)pyrimidin-2-yl)amino)-5-cyclopropoxy-2-ethylphenyl)piperidin-4-yl)piperazin-1-yl)ethyl)-2-oxobenzo[d]oxazol-3(2H)-yl)piperidine-2,6-dione]",92.3%,,,
,,,,"CCOc1cc(N2CCC(N3CCN(CCC4CCN(c5ccc6c(oc(=O)n6C6CCC(=O)NC6=O)c5F)CC4)CC3)CC2)c(CC)cc1Nc1ncc(Br)c(Nc2ccc3nc(CC)ncc3c2P(C)(C)=O)n1 (centres unmarked) [Example 612, 3-(6-(4-(2-(4-(1-(4-((5-bromo-4-((5-(dimethylphosphoryl)-2-ethylquinazolin-6-yl)amino)pyrimidin-2-yl)amino)-5-ethoxy-2-ethylphenyl)piperidin-4-yl)piperazin-1-yl)ethyl)piperidin-1-yl)-7-fluoro-2-oxobenzo[d]oxazol-3(2H)-yl)piperidine-2,6-dione]",72.14%,7.68 nM,93.2%,0.656 nM
